# Laboratory results published in patent publication US20040162275A1, “Multivalently interactive molecular assembly, capturing agent, drug carrier, calcium chelating agent, and drug enhancer” (Nobuhiko Yui, priority 2002, published 2004).
# Molecular target: concanavalin A (ConA) (Canavalia ensiformis, UniProt P02866)
# Assay: Hemagglutination inhibition test, Mal-polyrotaxane conjugate and ConA (Example 11)
# Assay type: cell-based
# Settings: rat erythrocyte, ConA at 4-fold minimum hemagglutinating concentration, maltose basis, FIG. 19
# Experimental: Next, hemagglutination inhibition test was performed to evaluate the interaction between Mal-polyrotaxane conjugate and concanavalin A (ConA), then 20 μL of diluted Mal-polyrotaxane conjugate in saline and 20 μL of solution of ConA in saline were dispensed in a 96well plate (U-bottom), stirred, and then incubated at 37° C. for 30 minutes. Next, 40 μL of 2% (v/v) rat erytlirocyte was added to the plate, and the mixture was stirred and then incubated at 37° C. for 30 minutes. The precipitation of erythrocyte was monitored to determine hemagglutination, and the minimum concentration to inhibit hemagglutination was determined. The ConA concentration was set up at a 4-fold higher value than the minimum concentration of ConA at which hemagglutination occurs.
# Relative MIC=(Min. inhibitory conc. of maltose)/(Min inhibitory conc. of maltose in the conjugate)
compound,measurement,value
"OC[C@H]1O[C@H](O[C@H]2[C@H](O)[C@@H](O)C(O)O[C@@H]2CO)[C@H](O)[C@@H](O)[C@@H]1O (mixture of isomers) [Mal, maltose]",minimum concentration to inhibit hemagglutination,9.1 mM
